Entries after “also recorded” stand apart in the source; their conditions may differ. Where two headings read alike, the source gives them in different places.
Assays:
HepG2 cells [1] = system: HepG2 cells; set-up: method as in PMID 22116976; conditions: HepG2, 20 µM (10.3 µg/mL); inhibited mitochondrial activity, membrane damage, increased ROS; cited from earlier work
HepG2 cells [2] = conditions: 72 h exposure, cited from earlier work
HepG2 cells [3] = test: oxidative stress, ROS production (DCFH assay); format: cell-based, human; conditions: HepG2, DCFH-DA, 72 h
Procedure: (§1) Intracellular ROS levels were evaluated using the redox-sensitive fluorescent dye DCFH-DA [87]. Briefly, the cells were incubated with 5 μM DCFH-DA for 1 h at 37 °C in the dark. Thereafter, the tested compounds were added at the concentrations used in the study. Cells treated with 500 μM hydrogen peroxide (H2O2) served as a positive control. After 72 h of incubation, the fluorescence of 2′,7′-dichlorofluorescein (DCF) was measured. Fluorescence was recorded at 485/530 nm using a fluorescence microplate reader (BioTek® Instruments Inc., Winooski, VT, USA).

HEK-293 cells [4] = test: oxidative stress, ROS production (DCFH assay); format: cell-based, human
Procedure: as §1

SH-SY5Y cells [5] = test: oxidative stress, ROS production (DCFH assay); format: cell-based, human; conditions: DCFH-DA, 72 h
Procedure: as §1

HepG2 cells [6] = test: mitochondrial activity (MTT assay)
Procedure: (§2) This innovative study evaluated the effects of cannabidiol (Cannabis sativa L.) on doxycycline-induced toxicity using three cell cultures: neural—SH-SY5Y, liver—HepG2, and kidney—HEK-293. […] A series of cytotoxicity assays included assessments of mitochondrial activity, lysosomal activity, cell membrane integrity, DNA synthesis, and cell proliferation. Based on the obtained results, IC50 values for doxycycline, both in monotherapy and in combination with CBD, were calculated, along with evaluations of ROS, death of cells, and morphology. The interaction between the drug and CBD was further analyzed by the combination index (CI).
(§3) The metabolic activity of viable cells was assessed by measuring dehydrogenase activity. After exposing the cell cultures to the test compounds, 10 µL of MTT solution (5 mg/mL in PBS) was added to each well of a 96-well plate. After 3 h of incubation, the MTT solution was removed, and the intracellular formazan was dissolved in 100 µL of DMSO. The plate was shaken for 15 min at room temperature and transferred to a Synergy 2 Multi-Mode Microplate Reader (BioTek® Instruments Inc., Winooski, VT, USA) to measure absorbance at 570 nm, using a blank as reference. Cytotoxicity was expressed as a percentage relative to the negative control.
(§4) To determine the types of interaction that occur when cells are exposed to combinations of DOX and CBD, the method established by Chou and Talalay was used in this study. The dose–effect relationships of the individual and combined test compounds were modeled biometrically using the Median-Effect Equation based on the Mass Action Law.fa/fu = (D/Dm)^m
(§5) In this isobolographic analysis, the combination index (CI) is a quantitative parameter used to evaluate the type and strength of interactions between multiple compounds. For all combinations, CI values were calculated across a range of affected fractions (Fa) from 0.05 to 0.95 (corresponding to 5–95% toxicity). CI values of 0.9–1.1, <0.9, and >1.1 indicate additive, synergistic, and antagonistic effects, respectively.
(§6) The study was conducted in three independent experiments (n = 3). […] Cytotoxicity data were analyzed using one-way analysis of variance (ANOVA), followed by Dunnett’s post hoc test to assess significance relative to the negative control. The half-maximal inhibitory concentration (IC50), representing the drug or drug–CBD mixture concentration required to inhibit cell viability by 50%, was calculated using GraphPad Prism 5.0. Statistical comparisons between IC50 values were performed using ANOVA followed by Tukey’s post hoc test. Differences were considered statistically significant at p ≤ 0.05.

HEK-293 cells [7] = test: mitochondrial activity (MTT assay)
Procedure: as §2, §3, §4, §5, §6

SH-SY5Y cells [8] = test: mitochondrial activity (MTT assay); conditions: 72 h
Procedure: as §2, §3, §4, §5, §6

HepG2 cells [9] = test: proliferation, total cellular protein (TPC assay)
Procedure: as §2
(§7) This assay is based on staining total cellular proteins as a measure of proliferation. After incubation, the medium containing the test compounds was removed, and 100 µL of Coomassie Brilliant Blue R-250 dye was added to each well. The plate was shaken for 10 min. The dye was then removed, and the cells were rinsed twice with 100 µL of washing solution (glacial acetic acid/ethanol/water, 5:10:85, v/v/v). Next, 100 µL of desorbing solution (1 M potassium acetate) was added, and the plate was shaken again for 10 min. Absorbance was measured at 595 nm using the Synergy 2 Multi-Mode Microplate Reader (BioTek® Instruments Inc., Winooski, VT, USA), with a blank as reference. Cytotoxicity was expressed as a percentage relative to the negative control.
as §4, §5, §6

HEK-293 cells [10] = test: proliferation, total cellular protein (TPC assay)
Procedure: as §2, §7, §4, §5, §6

SH-SY5Y cells [11] = test: proliferation, total cellular protein (TPC assay); conditions: 72 h
Procedure: as §2, §7, §4, §5, §6

[12] = system: human pluripotent stem cell-derived hepatocytes; conditions: cited from earlier work
[13] = system: SH-SY5Y human neuroblastoma cells; set-up: method as in PMID 33429042; conditions: 24 h, 4 ng/mL to 4.4 µg/mL; cited from earlier work
HepG2 cells [14] = system: HepG2 cells; set-up: method as in PMID 32867402; conditions: cited from earlier work
HEK-293 cells [15] = test: apoptosis and necrosis (Hoechst 33342 + propidium iodide staining); format: cell-based, human; conditions: HEK-293, 72 h
Procedure: (§8) The type and extent of cell death in the control and treated cultures were evaluated using fluorochrome staining with Hoechst 33342 and propidium iodide to assess apoptosis and necrosis [88]. Dead cells were analyzed morphologically using a fluorescence microscope (Axiovert 200 M, Zeiss, Oberkochen, Germany). Cells with pink, fluorescent nuclei were considered necrotic, whereas cells with blue, fluorescent nuclei (fragmented and/or condensed chromatin) were classified as apoptotic.

renal cancer cells = system: renal cancer cells; set-up: method as in PMID 34644207; conditions: cited from earlier work
SH-SY5Y cells [16] = conditions: 72 h, Hoechst 33342/propidium iodide
Procedure: as §8

[17] = cited from earlier work

SMILES: C[C@H]1c2cccc(O)c2C(=O)C2=C(O)[C@]3(O)C(=O)C(C(N)=O)=C(O)[C@@H](N(C)C)[C@@H]3[C@@H](O)[C@@H]21 [DOX, doxycycline hyclate]
- effect on cell viability (HepG2 cells [1]): reduced cell viability
- IC50 of mitochondrial inhibition (HepG2 cells [2]; converted value in brackets): 10.3 µg/mL
- IC50 (HepG2 cells [2]; read-out: IC50 of mitochondrial inhibition): 20 µM
- doxycycline concentration at which free radical (ROS) production increased significantly (HepG2 cells [3]): 12.5 µg/mL
- doxycycline concentration from which free radical (ROS) production increased (HEK-293 cells [4]): lowest tested concentration
- doxycycline concentration from which free radical (ROS) production increased (SH-SY5Y cells [5]): 1.56 µg/mL
- doxycycline concentration that impaired mitochondrial function (HepG2 cells [6]; HepG2, MTT, 72 h): 50 µg/mL
- IC50 (HepG2 cells [6]; Homo sapiens, HepG2, 72 h): > 200 µg/mL
- doxycycline concentration that inhibited mitochondrial activity (HEK-293 cells [7]; HEK-293, MTT, 72 h): 6.25 µg/mL
- IC50 (HEK-293 cells [7]; Homo sapiens, HEK293, 72 h): 17.4 ± 1 µg/mL
- IC50 (SH-SY5Y cells [8]; Homo sapiens): 9.8 ± 0.9 µg/mL
- doxycycline concentration from which mitochondrial activity was inhibited (SH-SY5Y cells [8]; MTT, p ≤ 0.05 vs negative control): 6.25 µg/mL
- doxycycline concentration that reduced cell proliferation (HepG2 cells [9]; HepG2, TPC, 72 h): 50 µg/mL
- IC50 (HepG2 cells [9]; Homo sapiens, HepG2, 72 h): > 200 µg/mL
- doxycycline concentration that inhibited cell proliferation (HEK-293 cells [10]; HEK-293, TPC, 72 h): 12.5 µg/mL
- IC50 (HEK-293 cells [10]; Homo sapiens, HEK293, 72 h): 14.8 ± 1.3 µg/mL
- IC50 (SH-SY5Y cells [11]; Homo sapiens): > 200 µg/mL
- doxycycline concentration at which cell proliferation decreased (SH-SY5Y cells [11]; TPC): 50 µg/mL
- effect on mitochondrial membrane [12]: depolarized the mitochondrial membrane
- effect on production of reactive oxygen species (ROS) [13]: protective effect
- concentration causing about a 50% reduction in cell viability (HepG2 cells [14]; HepG2, converted value in brackets): 10.3 to 13.0 µg/mL
- IC50 (HepG2 cells [14]; HepG2, read-out: concentration causing about a 50% reduction in cell viability): 20 to 25 µM
- apoptotic and necrotic cell fractions (HEK-293 cells [15]): increased apoptotic and necrotic cell fractions; also recorded: significant increase in apoptotic and necrotic cells
- concentration that significantly inhibited protein synthesis and mitochondrial complex activity (renal cancer cells; cells of neoplastic origin): 5 µg/mL
- concentration that induced apoptosis (renal cancer cells; renal cancer cells): 10 µg/mL
- proportion of apoptotic and necrotic cells (SH-SY5Y cells [16]): increased the proportion of apoptotic and necrotic cells
- proportion of apoptotic and necrotic cells (SH-SY5Y cells [16]; listed as doxycycline): marked increase in apoptotic and necrotic cell populations
- DOX level in breast muscles ([17]; breast muscles): 32.4 ± 3.6 µg/kg
- residues of DOX detected in eggs ([17]; eggs): up to 1400 μg/kg
- DOX concentration accumulated in the kidneys ([17]; kidneys): 44.7 ± 4.3 µg/kg
- DOX concentration measured in the liver ([17]; liver): 21.6 ± 3.2 µg/kg
- residues of DOX detected in milk ([17]; milk): 5 to 490 µg/kg
- DOX level in thigh muscles ([17]; thigh muscles): 22.7 ± 2.9 µg/kg

Source: paper PMC12610721, “The Action of Cannabidiol on Doxycycline Cytotoxicity in Human Cells—In Vitro Study” (Molecules, 2025)
